Results on 4 molecules are retold here after patent US20190021321A1, “BROAD SPECTRUM ANTIMICROBIAL & ANTICOAGULANT COMPOSITION” (priority 2016, published 2019).

Read-outs that look alike come from different tables or passages of the source.

Series [1] has as its system S. aureus. Nature of the series: Rate kill assay, plate count (Part A synergy; Part B pH and D-Mannitol effect). The conditions noted are these: D-Mannitol 0.73 wt % alone, both at pH 7.5 & 11. In kind it is cell-based.
Description: The second set of experiments conducted, were “Rate Kill” assay. […] In these assays the formulations are first exposed to organisms for a desired time (for the current formulations readings were taken at 1, 3 and 24 hours). Then a sample of the organisms and formulation mixture is serially diluted and plated to assess the log reduction. The organisms are allowed to grow and are checked for growth/log reduction after 24 hrs. The log reduction values obtained for individual components are compared with the combinations.
Each solution was then combined with S. aureus and the log reduction of the S. aureus was measured at 1, 3 and 24 hours.
In series [2] the test system is C. albicans. Described as above. The series is classed as cell-based. Conditions: D-Mannitol 0.73 wt % alone, both at pH 7.5 & 11.
Description: The second set of experiments conducted, were “Rate Kill” assay. A rate kill assay can confirm whether combinations are synergistic or not. In these assays the formulations are first exposed to organisms for a desired time (for the current formulations readings were taken at 1, 3 and 24 hours). Then a sample of the organisms and formulation mixture is serially diluted and plated to assess the log reduction. The organisms are allowed to grow and are checked for growth/log reduction after 24 hrs. The log reduction values obtained for individual components are compared with the combinations.
The following solutions were prepared:
Each solution was then combined with C. albicans and the log reduction of the C. albicans was measured at 1, 3 and 24 hours.
Series [3] deals with P. aeruginosa. The series is described as above. The series is classed as cell-based.
Description: In these assays the formulations are first exposed to organisms for a desired time (for the current formulations readings were taken at 1, 3 and 24 hours). Then a sample of the organisms and formulation mixture is serially diluted and plated to assess the log reduction. The organisms are allowed to grow and are checked for growth/log reduction after 24 hrs. The log reduction values obtained for individual components are compared with the combinations.
Each solution was then combined with P. aeruginosa and the log reduction of the P. aeruginosa was measured at 1, 3 and 24 hours.
The conditions of series [4]: up to 3000 mg infused over 3 hours, daily, treatment of hyper-calcemia in humans; cited from earlier work.
Series [5] relates to S. aureus. Nature of the series: Minimum inhibitory concentration (MIC) via macro-dilution method. The conditions noted are these: for GROWTH: 24 hours, replicate columns; for MIC: S. aureus.
In series [6] the test system is C. albicans. Put plainly: Synergy evaluation, checkerboard titration, macro-dilution. The series is classed as cell-based. As to the method:
(§1) The first set of experiments conducted, were screening experiments using checkerboard titration strategy to assess if the combinations fall within a range having an Fractional Inhibitory Concentration (FIC) index value of ≤1. The method used was a NCCLS macro-dilution procedure.
(§2) The Checkerboard Titration method was used to assess the interactions between TEDTA and Ethanol. […] During this experiment, TEDTA and Ethanol were tested in the combinations to assess if the combinations have a Fractional Inhibitory Concentration (FIC) index of ≤1. The following concentrations were tested:
(§3) Fractional Inhibitory Concentration (FIC) is defined as the MIC of the compound in combination divided by the MIC of the compound alone. If the FIC index is ≤0.5, the combination is interpreted to be synergistic; <1 but >0.5—as partially synergistic; =1 as additive; >1 but <4 as indifferent; and ≥4 as antagonistic. In order to calculate the FIC index the following calculations are performed for compounds A and B:
(§4) FIC-A=(MIC of A in combination)/(MIC of A alone)
(§5) FIC-B=(MIC of B in combination)/(MIC of B alone)
(§6) FIC-combination=FIC-A+FIC-B
(§7) The following concentrations were tested:
The MIC-TEDTA (MIC of TEDTA in combination with Ethanol), a minimum concentration of TEDTA, while in combination with Ethanol, that inhibited the growth of C. albicans in MHB was found. In order to determine the MIC-Ethanol (MIC of Ethanol in combination with TEDTA), a minimum concentration of Ethanol, while in combination with TEDTA, that inhibited the growth of C. albicans in MHB was found.

In series [7] the test system is P. aeruginosa. The conditions noted are these: for GROWTH: 24 hours, replicate columns; for MIC: P. aeruginosa. As to the method: (§8) Experiments were conducted to assess the minimum inhibitory concentration (MIC) both for sodium salt of EDTA that comprises tetra-sodium EDTA and Ethanol. […] Clear solution indicates no growth.
(§9) The following solutions were prepared to evaluate the MIC values of sodium salt of EDTA that comprises tetra-sodium EDTA (TEDTA) and Ethanol.

Series [8] deals with C. albicans. The conditions noted are these: for MIC: C. albicans; for GROWTH: 24 hours, replicate columns. How it is done: as §8, §9
Series [9] has as its system S. aureus. Put plainly: Synergy evaluation, checkerboard titration, macro-dilution. The series is classed as cell-based. As to the method: as §1, §2, §3, §4, §5, §6
In order to determine the MIC-Ethanol (MIC of Ethanol in combination with TEDTA), a minimum concentration of Ethanol, while in combination with TEDTA, which inhibited the growth of S. aureus in MHB was found.

Series [10] concerns P. aeruginosa. The description is as above. The series is classed as cell-based. How it is done:
as §1, §2, §3, §4, §5, §6, §7
The MIC-TEDTA (MIC of TEDTA in combination with Ethanol), a minimum concentration of TEDTA, while in combination with Ethanol, that inhibited the growth of P. aeruginosa in MHB was found. In order to determine the MIC-Ethanol (MIC of Ethanol in combination with TEDTA), a minimum concentration of Ethanol, while in combination with TEDTA, that inhibited the growth of P. aeruginosa in MHB was found.

Where [11] appears, read: S. aureus in Mueller Hinton Broth.
Setting [12] is: TEDTA alone, listed as Sodium Salt(s) of EDTA.
Where [13] appears, read: TEDTA 0.06 WT % individual (0.25 MIC).
The mark [14] stands for this setting: TEDTA 0.12 WT % individual (0.50 MIC).
[15] abbreviates: TEDTA 0.24 WT % individual (1.00 MIC).

As to `OC[C@@H](O)[C@@H](O)[C@H](O)[C@H](O)CO` [D-Mannitol], the log reduction in the series on S. aureus [1] is reported as greater than 4 log; in the series with C. albicans [2], greater than 5 log; in the series with P. aeruginosa [3] (P. aeruginosa, D-Mannitol 0.73 wt % alone, both at pH 7.5 & 11) it was greater than 5 log. For the same molecule, the “LOG REDUCTION AGAINST P. aeruginosa” value with P. aeruginosa [3] (footnote summary, D-mannitol alone, 0.73 wt %) was “D-MANNITOL EXHIBITS > 5 LOG REDUCTION AGAINST P. aeruginosa”.

Consider `O=C([O-])CN(CCN(CC(=O)[O-])CC(=O)O)CC(=O)O.[Na+].[Na+]` [EDTA disodium], for which the “tolerability of infused dose” value in [4] is on record as “well tolerated”.

Take `CCO` [ETHANOL, Ethanol]: the GROWTH result is “+VE” in the series with S. aureus [5] (ETHANOL 3.13 VOL %); “+VE” in the series with S. aureus [5] (ETHANOL 6.25 VOL %); “+VE” in the series with S. aureus [5] (ETHANOL 12.50 VOL %); “−VE” with S. aureus [5] (ETHANOL 25.00 VOL %); “−VE” with S. aureus [5] (ETHANOL 50.00 VOL %); “+VE” in the series with C. albicans [6] (ETHANOL 0.781 VOL % individual (0.25 MIC)). Also, the GROWTH entry is given as “+VE” in the series on C. albicans [6] (ETHANOL 1.563 VOL % individual (0.50 MIC)); “−VE” in the series on C. albicans [6] (ETHANOL 3.125 VOL % individual (1.00 MIC)); “+VE” in the series with P. aeruginosa [7] (ETHANOL 3.13 VOL %); “−VE” with P. aeruginosa [7] (ETHANOL 6.25 VOL %); “−VE” in the series with P. aeruginosa [7] (ETHANOL 12.50 VOL %); “−VE” in the series with P. aeruginosa [7] (ETHANOL 25.00 VOL %). Moreover, the GROWTH result in the series with P. aeruginosa [7] (ETHANOL 50.00 VOL %), in the series with C. albicans [8] (ETHANOL 3.125 VOL %), in the series on C. albicans [8] (ETHANOL 6.25 VOL %), with C. albicans [8] (ETHANOL 12.50 VOL %), with C. albicans [8] (ETHANOL 25.00 VOL %) and in the series with C. albicans [8] (ETHANOL 50.00 VOL %) was “−VE” in each case. For the same molecule, the GROWTH entry in the series with S. aureus [9] (ETHANOL 6.250 VOL % individual (0.25 MIC)) is given as “+VE”; with S. aureus [9] (ETHANOL 12.500 VOL % individual (0.50 MIC)) it was “+VE”; in the series on S. aureus [9] (ETHANOL 25.000 VOL % individual (1.00 MIC)) it was “−VE”; with P. aeruginosa [10] (ETHANOL 1.563 VOL % individual (0.25 MIC)) it was “+VE”; in the series on P. aeruginosa [10] (ETHANOL 3.125 VOL % individual (0.50 MIC)), “+VE”; with P. aeruginosa [10] (ETHANOL 6.250 VOL % individual (1.00 MIC)), “−VE”. Also, the MIC with S. aureus [5] (ethanol alone) turned out to be 25 VOL %; against P. aeruginosa [7] (ethanol alone), 6.25 VOL %; against C. albicans [8] (ethanol alone) it was 3.125 VOL %. Besides, the “MIC-Ethanol (MIC of Ethanol in combination with TEDTA)” value in the series on C. albicans [6] (C. albicans in MHB) is 0.781 % (v/v); in the series with P. aeruginosa [10] (P. aeruginosa in MHB), 3.125 % (v/v). Moreover, the FIC-Ethanol came to 0.25 with C. albicans [6] (C. albicans, 0.781/3.125); 0.25 with S. aureus [9] (S. aureus, 6.25/25); 0.5 with P. aeruginosa [10] (P. aeruginosa, 3.125/6.25). Further, the “MIC-ETH (MIC of Ethanol in combination with TEDTA)” value in the series on S. aureus [9] (setting [11]) is on record as 6.25 % (w/v).

In the case of `O=C([O-])CN(CCN(CC(=O)[O-])CC(=O)[O-])CC(=O)[O-].[Na+].[Na+].[Na+].[Na+]` [TEDTA, tetra-sodium EDTA], the MIC in the series on S. aureus [5] (setting [12]), with P. aeruginosa [7] (setting [12]) and in the series with C. albicans [8] (setting [12]) was 0.24 WT % each time. The GROWTH result is on record as “+VE” in the series with S. aureus [5] (TEDTA 0.015 WT %); “+VE” in the series with S. aureus [5] (TEDTA 0.030 WT %); “+VE” in the series on S. aureus [5] (TEDTA 0.060 WT %); “+VE” in the series with S. aureus [5] (TEDTA 0.120 WT %); “−VE” with S. aureus [5] (TEDTA 0.240 WT %); “−VE” in the series on C. albicans [6] (setting [13]). Also, the GROWTH result in the series on C. albicans [6] (setting [14]) is given as “−VE”; with C. albicans [6] (setting [15]) it was “−VE”; with P. aeruginosa [7] (TEDTA 0.125 WT %), “+VE”; in the series on P. aeruginosa [7] (TEDTA 0.250 WT %), “−VE”; in the series on P. aeruginosa [7] (TEDTA 0.500 WT %), “−VE”; in the series on P. aeruginosa [7] (TEDTA 1.000 WT %), “−VE”. In addition, the GROWTH entry in the series on P. aeruginosa [7] (TEDTA 1.500 WT %) is recorded as “−VE”; in the series with C. albicans [8] (TEDTA 0.015 WT %), “+VE”; in the series on C. albicans [8] (TEDTA 0.030 WT %) it was “+VE”; in the series with C. albicans [8] (TEDTA 0.060 WT %) it was “+VE”; in the series on C. albicans [8] (TEDTA 0.120 WT %), “+VE”; in the series with C. albicans [8] (TEDTA 0.240 WT %) it was “−VE”. In addition, the GROWTH entry in the series with S. aureus [9] (setting [13]) was “+VE”; with S. aureus [9] (setting [14]), “+VE”; in the series on S. aureus [9] (setting [15]), “−VE”; in the series on P. aeruginosa [10] (TEDTA 0.06 WT % individual (0.24 MIC)), “+VE”; with P. aeruginosa [10] (TEDTA 0.12 WT % individual (0.48 MIC)), “+VE”; in the series with P. aeruginosa [10] (TEDTA 0.24 WT % individual (0.96 MIC)) it was “−VE”. Besides, the results for the “MIC-TEDTA (MIC of TEDTA in combination with Ethanol)” value with C. albicans [6] (C. albicans in MHB), in the series on S. aureus [9] (setting [11]) and with P. aeruginosa [10] (P. aeruginosa in MHB) were 0.06 % (w/v), 0.06 % (w/v) and 0.12 % (w/v), respectively. The FIC-TEDTA is 0.25 in the series with C. albicans [6] (C. albicans, 0.06/0.24); 0.25 with S. aureus [9] (S. aureus, 0.06/0.24); 0.48 in the series with P. aeruginosa [10] (P. aeruginosa, 0.12/0.25).
